In patent US8337828B2, “Use of thymosin alpha 1, alone or in combination with PTX3 or ganciclovir, for the treatment of cytomegalovirus infection” (priority 2006, dated 2012):
Ends that are not written are not given here.

Columns and labels:
spleen cells = test: Cytokine levels in culture supernatants of spleen cells from MCMV-infected mice (ELISA); type: in vivo
Source text: (§1) Arrow indicates an inducible band. Lane 1, uninfected cells; lane 2, MCMV-infected; lane 3, Thymosin alpha 1 treated; lane 4, MCMV+Thymosin alpha 1 treated. (FIG. 3b) Cytokine production (pg/ml) by DC subsets treated as above. Bars indicate the standard errors. *P<0.05, cytokine production in MCMV-infected DC vs uninfected DC. **P<0.05, Thymosin alpha 1-treated vs untreated DC. (FIG. 3c) Cytokine production in mice during MCMV infection. Cytokine levels (pg/ml) in culture supernatants of spleen cells from mice with MCMV infection and treated for a week with Thymosin alpha 1 or GCV. *P<0.05, treated vs untreated mice. ND, not done.
Viral load (FIG. 4a) and cytokine production (FIG. 4b) in C57BL6, TLR4−/−, TLR9−/− and MyD88−/− mice infected with 5×10^5 PFU of MCMV and treated with 200 μg/kg Tα1 for a week. Virus titers, expressed as log 10, were quantified on MEF cells by standard plaque assay on infected tissues removed a week after infection and treatment. Cytokine (pg/ml) levels in culture supernatants of spleen cells were determined by ELISA assay. Bars indicate the standard errors. *P<0.05, Tα1-treated vs untreated mice. Results are representative of 3 independent experiments.
BALB/c or C57BL6 mice were infected with 10^5 or 5×10^5 PFU of MCMV, respectively. Virus titers, expressed as log 10, were quantified on MEF cells by standard plaque assay on lung tissues removed 7 days after the infection. Tα1 (200 μg/kg/daily for a week) and/or GCV (40 mg/kg, three times a week) were administered beginning the day of the infection. Cytokine (pg/ml) levels in culture supernatants of spleen cells (7 days) were determined by ELISA assay. Bars indicate the standard errors. *P<0.05, treated vs untreated mice. Results are representative of 3 independent experiments.
(§2) Quantification of cytokines by ELISA and ELISPOT assays. The levels of cytokines in the culture supernatants of mitogen-stimulated spleen cells (48 h stimulation with 10 μg/ml ConA) or MCMV-pulsed DC (24 h) were determined by ELISA (R&D Systems and PBL, Biomedical Lab, Milan, Italy). The detection limits (pg/ml) of the assays were <16 for IL-12 p70, <10 for IFN-., <3 for IL-10 and <10 for IFN-a. IFN-.-producing NK cells were enumerated by ELISPOT assay on purified NK (Virus Res. 2003; 98:17-467 25). Results are expressed as the mean number of cytokine-producing cells (±SE) per 10^5 cells, calculated using replicates of serial 2-fold dilutions of cells.

[1] = test system: methylcholanthrene-induced fibrosarcoma; conditions: mouse, in vivo; cited from earlier work
NK cells = type: in vivo, BALB/c mice; conditions: 200 μg/kg for a week
Method: Phenotypic analysis of total (FIG. 2a, FIG. 2b) or NK (FIG. 2c) cells from spleen of MCMV-infected BALB/c mice untreated (−) or treated (+) with 200 μg/kg Thymosin alpha 1 for a week; None represents uninfected mice. Numbers refer to the percentage of positive cells on FACS analysis, a week after the infection. Histograms are representative of 1 out of 4 independent experiments. (FIG. 2d) Cytotoxic activity (by standard 51Cr-release assay against YAC-1 targets) and frequency of IFN-.-producing NK cells by ELISPOT assay from mice treated as above. Bars indicate the standard errors. *P<0.05, infected vs uninfected mice. **P<0.05, Thymosin alpha 1-treated vs untreated infected mice. The results shown are from 5 independent experiments. Flow cytometry analyses. After blocking of FcRs with the anti-CD16/32 (2.4G2) antibody, cells were analyzed for antigen expression with a FACScan flow cytofluorometer (Becton Dickinson, Mountain View, Calif.) equipped with CELLQuest™ software. Control staining of cells with irrelevant Ab was used to obtain background fluorescence values. Abs were from PharMingen. NK cell cytotoxic activity. NK cells, purified from spleens by DX5 microbeads (Miltenyi Biotec), were defined as NK1.1+CD3-cells. NK cytolytic activity was assessed against 51 Cr-labeled YAC-1 lymphoma cells (Blood 2005; 106:4397-4406). Quantification of cytokines by ELISA and ELISPOT assays. The levels of cytokines in the culture supernatants of mitogen-stimulated spleen cells (48 h stimulation with 10 μg/ml ConA) or MCMV-pulsed DC (24 h) were determined by ELISA (R&D Systems and PBL, Biomedical Lab, Milan, Italy). The detection limits (pg/ml) of the assays were <16 for IL-12 p70, <10 for IFN-., <3 for IL-10 and <10 for IFN-a. IFN-.-producing NK cells were enumerated by ELISPOT assay on purified NK (Virus Res. 2003; 98:17-467 25). Results are expressed as the mean number of cytokine-producing cells (±SE) per 10^5 cells, calculated using replicates of serial 2-fold dilutions of cells.

CD11b+DC or pDC = test: Cytokine production by MCMV-pulsed DC subsets (ELISA); type: cell-based, BALB/c mice; conditions: MCMV-infected
Source text: as §1
DC subset generation. DC were obtained by culturing 10^6/ml BALB/c bone marrow cells in Iscove's modified medium, containing 10% filtered bovine serum, 50 μM 2-mercaptoethanol, sodium pyruvate (1 mM), 2 mM L-glutamine, HEPES (10 mM), and 50 μg/ml gentamycin in the presence of 150 U/ml mouse rGM-CSF (Sigma) and 75 U/ml rIL-4 (R&D Systems) for 7 days to obtain CD11b+DC or 200 ng/ml FLT3-L (Immunex Corporation, Seattle, Wash.) for 9 days to obtain pDC. Final maturation was accomplished by the addition of 1 μg/ml LPS or 2 μg/ml cytosine phosphorothioate-guanine oligodeoxynucleotide (CpG-B ODN 1668) (Coley Pharmaceutical Group, Wellesley, Mass.) for additional 24 h to CD11b+DC or pDC, respectively (Blood 2003; 102: 3807-344; 3814) CD11b+DC were discriminated on CD11chigh expression and were distinctly composed of CD8a+DC and CD11b+DC. pDC were defined as CD11clow, Ly6C+, CD8a+/− cells. Photographs were taken using a high Resolution Microscopy Color Camera AxioCam, using the AxioVision Software Rel. […]
as §2, with “The detection limits (pg/ml) of the assays were <16 for IL-12 p70, <10 for IFN-., <3 for IL-10 and <10 for IFN-a. IFN-.-producing NK cells were enumerated by ELISPOT assay on purified NK (Virus Res. 2003; 98:17-467 25).” left out

[2] = BALB/c mice with MCMV infection, particularly in the first weeks
[3] = spleen, MCMV-infected BALB/c mice

Ac-Ser-Asp-Ala-Ala-Val-Asp-Thr-Ser-Ser-Glu -Ile-Thr-Thr-Lys-Asp-Leu-Lys-Glu-Lys-Lys-Glu-Val-Glu-Glu-Ala-Glu-Asn-O (Ac-SDAAVDTSSEITTKDLKEKKEVEEAEN) [Thymosin alpha 1, acidic peptide present in thymus extract with immunoregulatory properties]
IL-10 production (spleen cells; BALB/c mice with MCMV infection): dramatically increased | IFN-. production (spleen cells; [2]): significantly increased | IFN-a production (spleen cells; [2]): significantly increased | IL-12p70 production (spleen cells; BALB/c mice with MCMV infection, soon after treatment, declining thereafter): slightly increased | levels of IFN-α, IL-12p70 and IFN-. in supernatants of splenocytes (spleen cells; C57BL6 and TLR4-/- mice, 200 μg/kg for a week): significantly increased | pulmonary metastases [1]: reduced | frequency of IFN-.-producing cells (ELISPOT) (NK cells; ex-vivo purified splenic NK cells): significantly up-regulated | expansion of CD4+ or CD8+ T cells (NK cells; [3]): not affecting the expansion | expansion of NK1.1+ NK cells (NK cells; [3]): expanded | expression of the activation marker CD69 on NK cells (NK cells; [3]): increased expression | production of IFN-a (CD11b+DC or pDC; CD11b+DC): slightly promoted | production of IFN-a (CD11b+DC or pDC; pDC pre-treated): greatly increased | production of IL-12p70 (CD11b+DC or pDC; pDC pre-treated): not affecting
